Measured values taken from ChEMBL document CHEMBL4680069, “Itaconate is a covalent inhibitor of the Mycobacterium tuberculosis isocitrate lyase” (RSC Med Chem, 2021).
Active and inactive are the calls of the source. No cut-off for these calls is given here.

Tests used:
[1] = tested on: Mycobacterium tuberculosis; assay: Binding affinity to N-terminal polyhis-tagged Mycobacterium tuberculosis ICL1 C191S mutant expressed in Escherichia coli BL21 (DE3) assessed as compound-protein covalent adduct formation by measuring molecular mass at 1 mM after 12 hrs in presence of MgCl2 by LC-MS analysis
[2] = Binding affinity to N-terminal polyhis-tagged Mycobacterium tuberculosis ICL1 C191S mutant expressed in Escherichia coli BL21 (DE3) in presence of MgCl2 by NMR binding analysis

## C=C(CC(=O)O)C(=O)O [ITACONATE]
[1]
  Activity: Active
[2]
  Kd: 155 µM
